The assay addresses T1, MD2 (myeloid differentiation protein 2) (Homo sapiens, UniProt Q9Y6Y9).
T1 construct: gene LY96; recombinant human MD2 (rhMD2)
T1 sequence (Q9Y6Y9 19-160): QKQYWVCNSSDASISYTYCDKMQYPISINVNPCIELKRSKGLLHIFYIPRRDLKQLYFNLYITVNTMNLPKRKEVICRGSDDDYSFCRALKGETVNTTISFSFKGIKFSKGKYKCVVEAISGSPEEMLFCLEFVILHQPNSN
Nature of the assay: SPR (ProteOn XPR36); supported by bis-ANS displacement and biotin-LPS competitive ELISA. It is filed as binding.

Broadly, the Kd is the equilibrium constant for the complex coming apart. The compound `COc1ccc(C(=O)/C=C/c2cc(OC)c(OC)c(OC)c2)cc1OC` [compound 20] gave a Kd of 189 µM.
